# Results published in patent publication US7879821B2, “Method for modulating inflammatory responses by altering plasma lipid levels” (University of Medicine and Dentistry of New Jersey, priority 2006, dated 2011).
# “Also recorded” adds a separate entry of the source.
# Columns and labels:
# human neutrophils (PMN) = experiment: Cholesterol-mediated Ca2+ influx in human PMN (fura-2 calcium spectrofluorometry); assay type: cell-based; conditions: for effect on cholesterol mediated Ca2+ influx (actin reorganization): Caly A 50 nM in cuvette, Cyto D pretreatment 2.5 uM 15 min, cholesterol 10 ug/ml; for effect of calcium channel blocker on cholesterol-mediated PMN calcium entry: dose response curves not shown
# PMN lipid raft fractions = experiment: Cholesterol content of PMN lipid raft fractions isolated by ultracentrifugation; assay type: cell-based, human; conditions: for ratio of cholesterol to protein / cholesterol concentration in the lowest density raft fractions: PMN pretreated, micromolar concentrations, absence of albumin; for change of cholesterol in raft fractions versus higher density fractions: cholesterol 10 μg/ml 10 minutes or MβCD 10 μM/10 min
# Method: Lipid raft fractions were isolated by ultracentrifugation from PMN treated with S1P, cholesterol or buffer only (“none”). […] After isolation from 2-3 normal volunteer donors, 5×10^7 PMN were divided into aliquots. Aliquots were treated at 37° C. with 10 μg/ml water-soluble cholesterol for 10 minutes, MβCD (10 μM/10 min) or with vehicle. All steps thereafter were performed on ice. Cells were spun and pellets resuspended in 1 ml of base buffer (20 mM Tris-HCl pH 7.8, 250 mM Sucrose, 1 mM CaCl2 and 1 mM MgCl2) containing protease inhibitor and 50 μg/ml calpain inhibitor 1. Cells were disrupted by passage through a 22 g 3″ needle 10 times. Fragmented cells were sonicated 5×20 s, cooling the cells on ice between sonications. […] The cell pellets were resuspended in 1 ml base buffer with inhibitors and the sonication repeated. The two postnuclear supernatants were combined and an equal volume of 50% Optiprep added. […] Tubes were then centrifuged (52,000 g; 3 hours) and serial 670 μl fractions were collected from the top of the tube using careful pipetting. Protein in each fraction was assayed by micro BCA assay method (Pierce, Rockford Ill.). Cholesterol was assayed using an Amplex Red cholesterol assay kit (Molecular Probes). Alkaline phosphatase was assayed using p-nitrophenyl phosphate as substrate. […] No detergents were used in raft preparation.
# PMN [1] = experiment: Store-operated calcium entry (SOCE) initiated by fMLP and Tg in PMN; assay type: cell-based, human
# Method: We hypothesized that calcium-entry dependent functions like RB would depend upon S1P synthesis and subsequent S1P interactions with rafts. Thus we developed a calcium-entry dependent RB model where Ca entry was manipulated by sphingosine kinase (SphK) inhibition, which inhibits S1P synthesis in response to internal calcium store release. […] Note that the vast majority of cell [Ca^2+] increases are due to calcium influx on re-calcifying the medium.
# (§1) PMN were suspended in HEPES buffer with 1 mM CaCl2 and 0.1% BSA and incubated with 2 μg/mL fura-2AM for 30 minutes in the dark at 37° C. Cells were divided into aliquots (2×10^6 PMN) and placed on ice in the dark. Prior to study, samples were warmed to 37°, centrifuged (4500 RPM, 5 sec) and supernatants removed. Pellets were resuspended in 200 μl of BSA-free and ‘nominally calcium-free’ HEPES buffer (with 0.3 mM EGTA) and finally injected into cuvettes containing 2.8 mL of the same buffer for study. Intracellular free calcium concentration ([Ca2+]i) was determined from the fluorescence at 505 nm using 340/380 nm dual wavelength excitation. (Fluoromax-2, Jobin-SPEX, Edison, N.J.).
# PMN [2] = experiment: Calcium-entry dependent respiratory burst (RB) initiated by fMLP/Tg in PMN; assay type: cell-based, human; conditions: for effect of cholesterol depletion on fMLP/Tg RB: MBCD 10 mM/10 min, fMLP/TG 100 nM/1 uM
# Method: The graph represents Vmax slopes values. n=2 for Blank, Cholesterol Blank and Cholesterol alone. The others are n=6.
# RB was assessed in PMN suspensions. Briefly, 2×10^6 PMN were suspended in 3 ml of HEPES buffer with 0.1% BSA and 15 ng/ml of 1,2,3-dihydrorhodamine (DHR) added. Cells were studied at 37° C. with constant stirring using excitation at 488 nm and emission at 530 nm. RB was allowed to become linear and achieve maximal reaction rate (Vmax). The fluorescent intensity (FI) curve of oxidized DHR was compiled for 60 seconds during Vmax. Curve-fitting analysis was performed over the linear portion (Sigma-Plot 4.0, SPSS, Chicago, Ill.). Vmax was assessed as the first derivative of the fluorescent intensity in counts per second (CPS).
# Next we evaluated the functional relevance of cholesterol-mediated Ca^2+ influx. We studied a PMN model where RB depends entirely on extra-cellular calcium entry to see if RB would vary with the incorporation of cholesterol into rafts.
# To do this, PMN were pre-incubated with MβCD, with vehicle or with varying concentrations of cholesterol to vary membrane raft cholesterol content (FIG. 21B). After the pre-incubation, RB was initiated using fMLP/Tg.
# PMN lipid rafts (GM-1) = experiment: Immunofluorescent microscopy for GM-1 (FITC-CTB) in PMN rafts; assay type: cell-based, human; conditions: free cholesterol 10 μg/mL
# PMN [3] = experiment: PMN calcium entry responses to S1P; assay type: cell-based, human
# Method: To evaluate whether Ca^2+-entry responses to S1P were raft dependent, we then disrupted lipid rafts using MBCD to bind raft cholesterol.
# as §1
# PMN [4] = experiment: Thapsigargin (TG) initiated Ca2+ entry in PMN; assay type: cell-based, human
# Method: as §1
# Since cholesterol had no discernable effect on ER Ca^2+ store release in response to PAF we examined the possibility that could play a direct role in the regulation of store-operated Ca^2+ entry; a Ca^2+ entry mechanism that is completely independent of GPCR activation. To study this we used thapsigargin (TG). TG blocks ER Ca^2+ ATPase pumps, thus depleting ER Ca^2+ stores directly and causing calcium entry independent of GPCR activation.
# PMN [5] = experiment: fMLP-mediated Ca2+ entry in PMN; assay type: cell-based, human
# Method: as §1
# To confirm that the effects of cholesterol on GPCR mediated Ca^2+ entry were generalized and not restricted to PAF we evaluated the effects of cholesterol on fMLP-mediated Ca^2+ entry. Consistent with PAF, fMLP-linked Ca^2+ entry responses were suppressed by MβCD and augmented by cholesterol (FIG. 23, upper panel).
# TRPC1 = experiment: Western blotting for TRPC1 in PMN raft fractions; assay type: cell-based, human; conditions: for global TRPC1 protein expression in whole cell lysates: 10 minutes exposure
# Method: TRPC1 is a prototypic calcium channel protein of the TRP family. PMN express multiple TRPC proteins that are known to traffic to the cell membrane during Ca entry. We therefore studied TRPC1 raft-trafficking in response to cholesterol as an initial proof of principle that raft cholesterol concentration might regulate the distribution of multiple Ca^2+-influx related proteins to or from the cell membrane. We analyzed 20 μl of each gradient fraction by electrophoresis on a SDS gel followed by Western blotting for TRPC1 protein. The primary rabbit anti-human TRPC1 antibody (Santa Cruz) was used at 1:1,600 dilution. Secondary goat anti-rabbit antibody was used at 1:16,000 dilution. An ECL Western blotting detection kit was used to develop the blots which were imaged as above.
# We therefore used Western blots to probe for TRPC1 in fractions 2-4 of pooled normal volunteer PMN fractionated with or without prior incubation in 10 μg/mL cholesterol (FIG. 26).
# Subsequently, we sought to determine the source of the increased TRPC1 in the lipid raft fractions. Whole cell lysates from cholesterol treated and untreated cells were compared (not shown). […] Since the events leading to calcium entry are very rapid, later time points were not studied. Finally, we assayed TRPC1 in individual raft fractions from concurrently treated and analyzed PMN specimens (FIG. 27). […] Thus a redistribution of TRPC1 occurs in response to cholesterol treatment which appears to reflect trafficking of the protein to raft fractions rather than de novo synthesis.
# human PMN = experiment: PAF mediated SOCE in human PMN; assay type: cell-based
# [6] = fMLP/Tg RB after pre-incubation
compound,measurement,setting,value
"COC[C@@H]([C@H](O)[C@H](O)C(=O)NCC[C@H](C)c1nc(/C=C/C[C@@H]2O[C@]3(C[C@@H](O)[C@@H]2C)O[C@H]([C@H](C[C@H](O)[C@H](C)[C@H](O)[C@H](C)/C=C(C)/C(C)=C/C=C/C(C)=C\C#N)OC)[C@H](OP(=O)(O)O)C3(C)C)co1)N(C)C [CalyA, Calyculin A]",effect on cholesterol mediated Ca2+ influx (actin reorganization),human neutrophils (PMN),abolished
"C=C1[C@@H](C)[C@H]2[C@H](Cc3ccccc3)NC(=O)[C@]23[C@H](OC(C)=O)/C=C/[C@@](C)(O)C(=O)[C@@H](C)C/C=C/[C@H]3[C@@H]1O [CytoD, Cytochalasin D]",effect on cholesterol mediated Ca2+ influx (actin reorganization),human neutrophils (PMN),reversed the inhibition
"[La+3] [La^3+, lanthanum]",inhibition of cholesterol mediated PMN Ca2+ influx by lanthanum,human neutrophils (PMN); 1 mM,inhibited; also recorded: almost totally inhibits
"CCCCCCCCCCCCC/C=C/[C@@H](O)[C@@H](N)COP(=O)(O)O [S1P, sphingosine 1-phosphate, reference compound]",ratio of cholesterol to protein / cholesterol concentration in the lowest density raft fractions,PMN lipid raft fractions,increases in cholesterol concentration
same,ratio of cholesterol to protein / cholesterol concentration in the lowest density raft fractions,PMN lipid raft fractions; listed as SIP,even greater increases in cholesterol concentration
same,reversal of SKI-2 inhibition of SOCE by exogenous S1P,"PMN [1]; 5 M S1P, 30 μM SKI-2",totally reversed; also recorded: reverses 30 μM SKI-2 inhibition
same,rescue of RB after SKI-2 inhibition,PMN [2]; S1P 5 uM after SKI-2 30 uM,rescue of RB
same,restoration of RB by S1P after MβCD cholesterol depletion,PMN [2]; n=4-6,restored RB to control levels
COc1ccc(CCCOC(Cn2ccnc2)c2ccc(OC)cc2)cc1 (centres unmarked) [SKF96365],IC50,"human neutrophils (PMN); Neutrophil, human PMN, 3-4 experiments per condition, read-out: IC50 for block of cholesterol-mediated PMN calcium entry",~30 µM
same,effect of calcium channel blocker on cholesterol-mediated PMN calcium entry,human neutrophils (PMN); human PMN,inhibited
same,effect of calcium channel blocker on cholesterol-mediated PMN calcium entry,"human neutrophils (PMN); human PMN, listed as SKF",quantitatively inhibited
Oc1ccc(Nc2nc(-c3ccc(Cl)cc3)cs2)cc1 [SKI-2],effect on SOCE initiated by fMLP and Tg,"PMN [1]; fMLP 100 nM, Tg 1 uM",inhibited; also recorded: suppressing SOCE
same,effect of SphK inhibition on fMLP/Tg induced RB,"PMN [2]; 30 uM, n=4",blocked fMLP/Tg induced RB down to background levels
CC(C)CCC[C@@H](C)[C@H]1CC[C@H]2[C@@H]3CC=C4C[C@@H](O)CC[C@]4(C)[C@H]3CC[C@]12C [cholesterol],membrane GM-1 binding and raft coalescence,PMN lipid rafts (GM-1),increased membrane GM-1 available for binding
same,effect of cholesterol on patient PMN calcium entry response to S1P,"PMN [3]; injured patients' PMN, cholesterol 30 ug/ml, n=8 PMN isolates",restored to healthy volunteer levels; also recorded: exceed basal levels
same,reversal of MβCD effect on S1P calcium entry by cholesterol replenishment,PMN [3]; n=3,reversible; also recorded: reversal of the MβCD effect
same,ratio of cholesterol to protein / cholesterol concentration in the lowest density raft fractions,PMN lipid raft fractions,more than doubles
same,change of cholesterol in raft fractions versus higher density fractions,PMN lipid raft fractions,incorporated preferentially into the low density fractions
same,reversal of MβCD inhibition of TG Ca2+ entry by cholesterol re-addition,PMN [4],immediately reversed and even overcome
same,effect on fMLP-linked Ca2+ entry responses,PMN [5],augmented
same,effect of very high cholesterol concentrations on fMLP-mediated Ca2+ entry,PMN [5]; very high cholesterol concentrations,suppressed calcium entry
same,effect of cholesterol concentrations above 10 μg/mL on PMN Ca2+ uptake,"human neutrophils (PMN); above 10 μg/mL, direct stimulation and combination with S1P",suppress PMN Ca^2+ uptake
same,direct calcium entry caused by cholesterol at re-addition dose,human neutrophils (PMN); cholesterol 3 ug/ml final,does not itself cause calcium entry
same,direct effect of cholesterol on calcium entry into human PMN,"human neutrophils (PMN); free cholesterol, albumin-free media","caused Ca entry without any antecedent release of calcium stores; also recorded: potent, dose-dependent activator; also recorded: direct dose-related response"
same,global TRPC1 protein expression in whole cell lysates,TRPC1,No differences in global TRPC1 protein expression
same,TRPC1 protein in membrane lipid raft fractions,TRPC1; pre-incubation in 10 μg/mL cholesterol,increases the amount of TRPC1 protein; also recorded: redistribution of the TRPC1 signal from higher density fractions into the raft fractions
same,rescue of RB by cholesterol in MBCD treated neutrophils,PMN [2]; cholesterol 30 ug/ml,rescued RB from MβCD inhibition; also recorded: significantly rescued that RB
same,external cholesterol concentration yielding optimal PMN oxidant production,PMN [2]; [6],10 µg/mL
same,external cholesterol concentration yielding optimal PMN oxidant production (molar),PMN [2]; [6],~25 µM
same,effect of increasing (high) cholesterol concentrations on RB,"PMN [2]; pre-incubation, higher concentrations (FIG. 21B columns 6-7)",decreased the degree of respiratory burst
same,effect of lower cholesterol concentrations on RB,"PMN [2]; pre-incubation, lower concentrations (FIG. 21B columns 3-5)",dose-dependent augmentation of RB
same,effect on release of Ca2+ from cell stores (PAF),human PMN; PAF 100 nM,no effect upon Ca^2+ store mobilization
same,effect of cholesterol present in cuvette on PAF Ca2+ entry in normal cells,"human PMN; normal PMN, brief exposure",increased Ca^2+ entry
same,rescue of PAF Ca2+ entry by cholesterol after MβCD,human PMN; small amounts of cholesterol (3 ug/ml final),rescued Ca^2+entry
COc1ccc(CCN(C)CCCC(C#N)(c2ccc(OC)c(OC)c2)C(C)C)cc1OC (centres unmarked) [verapamil],effect of calcium channel blocker on cholesterol-mediated PMN calcium entry,human neutrophils (PMN); human PMN,not inhibited; also recorded: no effect
same,effect of calcium channel blocker on cholesterol-mediated PMN calcium entry,"human neutrophils (PMN); human PMN, listed as VER",no effect at any concentration
methyl-β cyclodextrin [MβCD],effect of MβCD on patient PMN Ca2+ entry responses to S1P,PMN [3]; injured patients' PMN,further suppressed
same,effect of raft disruption on PMN calcium entry responses to S1P,PMN [3]; n=3,completely blocks calcium entry
same,effect of raft disruption on PMN calcium entry responses to S1P,"PMN [3]; n=3, listed as MBCD",completely blocked
same,change of cholesterol in raft fractions versus higher density fractions,PMN lipid raft fractions,removed cholesterol from raft fractions
same,effect on TG initiated Ca2+ entry,PMN [4],markedly inhibited
same,effect on fMLP-linked Ca2+ entry responses,PMN [5],suppressed
same,global TRPC1 protein expression in whole cell lysates,TRPC1,No differences in global TRPC1 protein expression
same,effect of cholesterol depletion on fMLP/Tg RB,PMN [2],inhibited RB; also recorded: clear suppression of RB; also recorded: markedly suppressed RB responses
same,effect of cholesterol depletion on fMLP/Tg RB,PMN [2]; listed as MBCD,blocks RB; also recorded: attenuated
same,effect on release of Ca2+ from cell stores (PAF),human PMN; PAF 100 nM,no effect whatsoever
same,effect on PAF-initiated Ca2+ entry after cholesterol sequestration,"human PMN; PAF 100 nM, MBCD 10 mM 10 minutes",blocked
